Patent US20260098017A1, “NOVEL AROMATIC RING DERIVATIVE CONTAINING AMIDE SUBSTITUTION AND USE THEREOF” (TIANJIN PHARMACEUTICAL BIOTECHNOLOGY CO., LTD., priority 2022, published 2026)

Biological target: Ba/F3 cell line expressing TYK2 (Homo sapiens, UniProt P29597, cells depend on it, form not given)
Experiment: In vitro cellular inhibition assay (Ba/F3 cell proliferation, CellTiter-Glo)
Format: cell-based
Conditions: read-out: IC50 (the source's name)
Description: The inhibitory effect of the compounds of formula (I) according to the present invention on the TYK2 signaling pathway in cells was assessed using the following method:
Instrumentation: SpectraMax Paradigm reader.
Method: in this experiment, a Ba/F3 cell line expressing TYK2 was employed to assess the effect of the compounds on cell proliferation inhibition by measuring their effects on cell activity in vitro.
Procedure: a CellTiter-Glo buffer was thawed and placed aside till room temperature. A CellTiter-Glo substrate was placed aside till room temperature and dissolved with the buffer to prepare a CellTiter-Glo working solution. To a 96-well flat bottom transparent drug plate, 98 μL of cell culture medium and 2 μL of gradient diluted compound solution were added. The drug plate was placed aside for 10 min, and then 50 μL of the CellTiter-Glo working solution was added. The drug plate was subsequently shaken on an orbital shaker for 2 min and placed aside at room temperature for an additional 10 min. Finally, the luminescence signal was measured on the SpectraMax Paradigm reader.
Data Analysis: the cell proliferation inhibition rate data were processed using the following formula:
Inhibition Rate (Inh %)=100−(RLUDrug−RLUMin)/(RLUMax−RLUMin)×100%.
The inhibition rates of compounds with different concentrations were calculated in EXCEL, and then GraphPad Prism software was employed to plot inhibition rate curve and calculate relevant parameters, including maximum and minimum cell inhibition rates, IC50 values.

Compound	GI50 [nM]
[2H]C([2H])([2H])NC(=O)c1cnc(NC(=O)C2CC2)cc1Nc1cccc(C(=O)Nc2ccc(C3CC3)cc2)c1OC [Example 71]	5 to 10
[2H]C([2H])([2H])NC(=O)c1cnc(NC(=O)C2CC2)cc1Nc1cccc(C(=O)Nc2ccc(C(C)C)cc2)c1OC [Example 72]	5 to 10
[2H]C([2H])([2H])NC(=O)c1cnc(NC(=O)C2CC2)cc1Nc1cccc(C(=O)Nc2ccc(C(C)(C)C)cc2)c1OC [Example 73]	5 to 10
[2H]C([2H])([2H])NC(=O)c1cnc(NC(=O)C2CC2)cc1Nc1cccc(C(=O)Nc2ccc(C(F)(F)F)cc2)c1OC [Example 74]	5 to 10
[2H]C([2H])([2H])NC(=O)c1cnc(NC(=O)C2CC2)cc1Nc1cccc(C(=O)Nc2ccc(C#N)cc2)c1OC [Example 75]	5 to 10
[2H]C([2H])([2H])NC(=O)c1cnc(NC(=O)C2CC2)cc1Nc1cccc(C(=O)Nc2ccc(OC)cc2)c1OC [Example 76]	5 to 10
[2H]C([2H])([2H])NC(=O)c1cnc(NC(=O)C2CC2)cc1Nc1cccc(C(=O)Nc2ccc(CC)c(C)c2)c1OC [Example 77]	5 to 10
[2H]C([2H])([2H])NC(=O)c1cnc(NC(=O)C2CC2)cc1Nc1cccc(C(=O)Nc2ccc(C3CC3)c(C)c2)c1OC [Example 78]	5 to 10
[2H]C([2H])([2H])NC(=O)c1cnc(NC(=O)C2CC2)cc1Nc1cccc(C(=O)Nc2ccc(C(C)C)c(C)c2)c1OC [Example 79]	5 to 10
[2H]C([2H])([2H])NC(=O)c1cnc(NC(=O)C2CC2)cc1Nc1cccc(C(=O)Nc2ccc(C(C)(C)C)c(C)c2)c1OC [Example 80]	5 to 10
[2H]C([2H])([2H])NC(=O)c1cnc(NC(=O)C2CC2)cc1Nc1cccc(C(=O)Nc2ccc(C(F)(F)F)c(C)c2)c1OC [Example 81]	5 to 10
[2H]C([2H])([2H])NC(=O)c1cnc(NC(=O)C2CC2)cc1Nc1cccc(C(=O)Nc2ccc(C#N)c(C)c2)c1OC [Example 82]	5 to 10
[2H]C([2H])([2H])NC(=O)c1cnc(NC(=O)C2CC2)cc1Nc1cccc(C(=O)Nc2ccc(OC)c(C)c2)c1OC [Example 83]	5 to 10
[2H]C([2H])([2H])NC(=O)c1cnc(NC(=O)C2CC2)cc1Nc1cccc(C(=O)Nc2ccc(F)c(C)c2)c1OC [Example 84]	5 to 10
[2H]C([2H])([2H])NC(=O)c1cnc(NC(=O)C2CC2)cc1Nc1cccc(C(=O)Nc2ccn(C)n2)c1OC [Example 85]	5 to 10
[2H]C([2H])([2H])NC(=O)c1cnc(NC(=O)C2CC2)cc1Nc1cccc(C(=O)Nc2cn(C)cn2)c1OC [Example 87]	5 to 10
[2H]C([2H])([2H])NC(=O)c1cnc(NC(=O)C2CC2)cc1Nc1cccc(C(=O)Nc2ncn(C)n2)c1OC [Example 88]	5 to 10

Compound	GI50 [nM]
[2H]C([2H])([2H])NC(=O)c1cnc(NC(=O)C2CC2)cc1Nc1cccc(C(=O)Nc2cccc(C)n2)c1OC [Example 89]	5 to 10
[2H]C([2H])([2H])NC(=O)c1cnc(NC(=O)C2CC2)cc1Nc1cccc(C(=O)Nc2ccnc(C)c2)c1OC [Example 90]	5 to 10
[2H]C([2H])([2H])NC(=O)c1cnc(NC(=O)C2CC2)cc1Nc1cccc(C(=O)Nc2cc(C)ccn2)c1OC [Example 92]	5 to 10
[2H]C([2H])([2H])NC(=O)c1cnc(NC(=O)C2CC2)cc1Nc1cccc(C(=O)Nc2ncc(F)cn2)c1OC [Example 93]	5 to 10
[2H]C([2H])([2H])NC(=O)c1cnc(NC(=O)C2CC2)cc1Nc1cccc(C(=O)Nc2ccc(F)cn2)c1OC [Example 94]	5 to 10
[2H]C([2H])([2H])NC(=O)c1cnc(NC(=O)C2CC2)cc1Nc1cccc(C(=O)Nc2ccc(C)cn2)c1OC [Example 95]	5 to 10
[2H]C([2H])([2H])NC(=O)c1cnc(NC(=O)C2CC2)cc1Nc1cccc(C(=O)Nc2ncc(C)cn2)c1OC [Example 97]	5 to 10
[2H]C([2H])([2H])NC(=O)c1cnc(NC(=O)C2CC2)cc1Nc1cccc(C(=O)Nc2ccc(F)nc2)c1OC [Example 98]	5 to 10
[2H]C([2H])([2H])NC(=O)c1cnc(NC(=O)C2CC2)cc1Nc1cccc(C(=O)Nc2cnc(F)nc2)c1OC [Example 99]	5 to 10
[2H]C([2H])([2H])NC(=O)c1cnc(NC(=O)C2CC2)cc1Nc1cccc(C(=O)Nc2ccccn2)c1OC [Example 100]	5 to 10
[2H]C([2H])([2H])NC(=O)c1cnc(NC(=O)C2CC2)cc1Nc1cccc(C(=O)Nc2cccnc2)c1OC [Example 101]	5 to 10
[2H]C([2H])([2H])NC(=O)c1cnc(NC(=O)C2CC2)cc1Nc1cccc(C(=O)Nc2ccncc2)c1OC [Example 102]	5 to 10
[2H]C([2H])([2H])NC(=O)c1cnc(NC(=O)C2CC2)cc1Nc1cccc(C(=O)Nc2ncccn2)c1OC [Example 103]	5 to 10
[2H]C([2H])([2H])NC(=O)c1cnc(NC(=O)C2CC2)cc1Nc1cccc(C(=O)Nc2cncnc2)c1OC [Example 104]	5 to 10
[2H]C([2H])([2H])NC(=O)c1nnc(NC(=O)C2CC2)cc1Nc1cccc(C(=O)NC(C)(C)C)c1OC [Example 105]	5 to 10
[2H]C([2H])([2H])NC(=O)c1cnc(NC(=O)C2CC2)cc1Nc1cccc(C(=O)NC(C)(C)C)c1OC [Example 106]	5 to 10
